Test: solvent given as SMILES

## COc1ccc(C2=C(c3ccc(OC)cc3)c3cccc4c3c(cc3nc5ccccc5nc34)O2)cc1
In ClCCl
  emission maximum: 572 nm

## O=[N+]([O-])c1ccc(-n2c3ccccc3c3c2c2ccccc2n3-c2ccccc2)cc1
In Cc1ccccc1
  emission maximum: 660 nm

## CCOC(=O)c1cc(C(=O)OCC)c2ccc(N(C)C)cc2n1
In CCO
  emission maximum: 541 nm

## COC(=O)c1ccc(-c2ccc3c(c2)C(=O)c2cc(-c4ccc(C(=O)OC)cc4)ccc2-3)cc1
In C1CCOC1
  emission maximum: 366 nm

## CN(C)c1ccc(/C=C/c2cc[n+](CCCCCCCCCCCC[n+]3ccc(/C=C/c4ccc(N(C)C)cc4)cc3)cc2)cc1
In CC1COC(=O)O1
  emission maximum: 602 nm
In CC#N
  emission maximum: 602 nm
In CC(C)=O
  emission maximum: 602 nm
In CC(C)O
  emission maximum: 590 nm
In CCO
  emission maximum: 593 nm
In CN(C)C=O
  emission maximum: 602 nm
In CO
  emission maximum: 597 nm
In CS(C)=O
  emission maximum: 607 nm
In ClC(Cl)Cl
  emission maximum: 580 nm
In O
  emission maximum: 597 nm
In c1ccncc1
  emission maximum: 598 nm

## CCCCn1c2ccc(-c3ccc4ccccc4c3)cc2c2ccc3c4cc(-c5ccc6ccccc6c5)ccc4n(CCCC)c3c21
In ClC(Cl)Cl
  emission maximum: 418 nm

## CCCSC1=[N+]2C(=C(c3ccccc3)c3ccc(SCCC)n3[B-]2(F)F)C=C1SC#N
In CC#N
  emission maximum: 584 nm
In CCCCCC
  emission maximum: 597 nm
In CCOC(C)=O
  emission maximum: 588 nm
In CO
  emission maximum: 582 nm
In ClCCl
  emission maximum: 586 nm

## COC(=O)c1cc(=O)n(C)c2cc(-c3ccccc3N(C)C)sc12
In CC#N
  emission maximum: 484 nm
In ClCCl
  emission maximum: 537 nm

## CCCCCCCCCCOc1cc(OCCCCCCCCCC)cc(C2=C3C(/C=C/c4ccc(OC)cc4)=C(C#Cc4ccc(C(C)(C)C)cc4)C(/C=C/c4ccc(OC)cc4)=[N+]3[B-](F)(F)n3c(/C=C/c4ccc(OC)cc4)c(C#Cc4ccc(C(C)(C)C)cc4)c(/C=C/c4ccc(OC)cc4)c32)c1
In ClC(Cl)Cl
  emission maximum: 756 nm

## COc1ccc(C(=O)/C=C2\C(=O)Nc3ccccc32)cc1
In C1COCCO1
  emission maximum: 373 nm
In CC#N
  emission maximum: 372 nm
In CC(C)(C)O
  emission maximum: 381 nm
In CC(C)O
  emission maximum: 378 nm
In CCCCO
  emission maximum: 378 nm
In CCOC(C)=O
  emission maximum: 375 nm
In CN(C)C=O
  emission maximum: 375 nm
In CO
  emission maximum: 380 nm
In ClCCl
  emission maximum: 411 nm
In O
  emission maximum: 407 nm

## Cc1ccc(/C2=c3\cc/c(o3)=C(\c3ccc(C)cc3)c3ccc([nH]3)-c3ccc4n3[B-](F)(F)[N+]3=C(C=CC3=C4c3ccco3)c3ccc2[nH]3)cc1
In ClC(Cl)Cl
  emission maximum: 731 nm

## CNc1ccc(/C=C/C#N)cc1
In C1CCCCC1
  emission maximum: 368 nm
In C1CCOC1
  emission maximum: 419 nm
In C1COCCO1
  emission maximum: 399 nm
In CC1CCCCC1
  emission maximum: 391 nm
In CC#N
  emission maximum: 421 nm
In CC(C)O
  emission maximum: 408 nm
In CCO
  emission maximum: 414 nm
In CO
  emission maximum: 423 nm
In ClC(Cl)Cl
  emission maximum: 404 nm
In O
  emission maximum: 445 nm

## C(S/C=C/c1ccc(/C=C/SC=C2CCCC2)cc1)=C1CCCC1
In ClCCl
  emission maximum: 424 nm

## COc1cc(OC)cc(C2=C3C(C)=C(I)C(/C=C/c4ccsc4)=[N+]3[B-](F)(F)n3c(/C=C/c4ccsc4)c(I)c(C)c32)c1
In C1CCOC1
  emission maximum: 680 nm
In CS(C)=O
  emission maximum: 692 nm
In ClCCl
  emission maximum: 682 nm

## CCOC(=O)c1cc(C(=O)OCC)c2cccc(OC)c2n1
In CCO
  emission maximum: 526 nm

## CCN(CC)c1ccc2cc(/C=C(\C#N)c3nc4ccccc4s3)c(=O)oc2c1
In C1COCCO1
  emission maximum: 570 nm
In CC#N
  emission maximum: 596 nm
In CCO
  emission maximum: 594 nm
In CCOC(C)=O
  emission maximum: 576 nm
In CN(C)C=O
  emission maximum: 605 nm
In CO
  emission maximum: 598 nm
In CS(C)=O
  emission maximum: 613 nm
In Cc1ccccc1
  emission maximum: 567 nm
In ClCCl
  emission maximum: 580 nm

## Clc1ccc2nc3cc4ccccc4cc3c(-c3ccccc3)c2c1
In ClCCl
  emission maximum: 527 nm

## Cc1ccc(-c2cc(C)[o+]c(C)c2)cc1
In CC#N
  emission maximum: 435 nm
In ClCCl
  emission maximum: 417 nm

## COc1ccc2c(-c3nc(-c4ccccc4F)no3)cc(=O)oc2c1
In CCO
  emission maximum: 464 nm
In ClC(Cl)Cl
  emission maximum: 453 nm

## F[B-]1(F)n2c(-c3cccs3)cc(-c3cccs3)c2N=C2C(c3cccs3)=CC(c3cccs3)=[N+]21
In C1CCOC1
  emission maximum: 763 nm
In CC#N
  emission maximum: 757 nm
In CS(C)=O
  emission maximum: 775 nm
In Cc1ccccc1
  emission maximum: 765 nm
In ClCCl
  emission maximum: 764 nm

## O=C1c2ccc3c4c(Oc5ccccc5)cc5c6c(ccc(c7c(Oc8ccccc8)cc(c2c37)C(=O)N1c1ccc(O)cc1)c64)C(=O)N(c1ccc(O)cc1)C5=O
In C1CCOC1
  emission maximum: 564 nm
In CN1CCCC1=O
  emission maximum: 592 nm
In CN(C)C=O
  emission maximum: 576 nm

## CC1=C(C(C)(C)C)C(C)=[N+]2C1=C(C)c1c(C)c(C(C)(C)C)c(C)n1[B-]2(F)F
In C1CCCCC1
  emission maximum: 571.2 nm
In C1CCOC1
  emission maximum: 566.6 nm
In C1COCCO1
  emission maximum: 565.4 nm
In CC#N
  emission maximum: 560.6 nm
In CC(C)=O
  emission maximum: 563.6 nm
In CC(C)CC(C)(C)C
  emission maximum: 569 nm
In CCC(C)C
  emission maximum: 569 nm
In CCCC(C)=O
  emission maximum: 562.6 nm
In CCCCCC
  emission maximum: 567.8 nm
In CCCCCCCCO
  emission maximum: 565 nm
In CCCCCCO
  emission maximum: 565.4 nm
In CCCCO
  emission maximum: 566.6 nm
In CCCCOC(C)=O
  emission maximum: 564.6 nm
In CCCO
  emission maximum: 564.6 nm
In CCO
  emission maximum: 563.2 nm
In CCOC(C)=O
  emission maximum: 562.4 nm
In CCOCC
  emission maximum: 565.4 nm
In CN(C)C=O
  emission maximum: 565.4 nm
In CNC=O
  emission maximum: 560.6 nm
In CO
  emission maximum: 561.2 nm
In COC(C)=O
  emission maximum: 561.8 nm
In OCC(F)(F)F
  emission maximum: 561.2 nm

## COC(=O)CC1(C(=O)O)Oc2c(c(C(C)=O)c3c(c2C(C)=O)OCO3)O1
In CC#N
  emission maximum: 547 nm

## C/C=C/C=C/C1=NC(=C\c2ccc([O-])cc2)/C(=O)N1C
In O
  emission maximum: 565 nm

## Cc1cccn2c1cc1c3ccccc3nc(-c3ccco3)c12
In CS(C)=O
  emission maximum: 502 nm

## O=C1c2ccccc2C2=Nc3cccc4cccc(c34)N12
In ClCCl
  emission maximum: 596 nm

## Clc1ccc(/C=C(\c2ccccc2)c2nc3ccccc3o2)cc1
In CO
  emission maximum: 420 nm

## CCCCC(CC)CN1C(=O)c2cc(Oc3ccc(OC)cc3)c3c4c(Cl)cc5c6c(cc(Cl)c(c7c(Oc8ccc(OC)cc8)cc(c2c37)C1=O)c64)C(=O)N(c1c(C(C)C)cccc1C(C)C)C5=O (stereo not given)
In Cc1ccccc1
  emission maximum: 614 nm

## c1ccc(-c2c3c(c(-c4ccccc4)c4cc5ccccc5cc24)Cc2c(c(-c4ccccc4)c4cc5ccccc5cc4c2-c2ccccc2)C3)cc1
In CC#N
  emission maximum: 400 nm
In CCCCCC
  emission maximum: 396 nm
In CO
  emission maximum: 398 nm
In Cc1ccccc1
  emission maximum: 402 nm
In ClCCl
  emission maximum: 402 nm

## Cc1c(COC(=O)c2ccccc2Cl)n2c(OCC(=O)c3ccccc3Cl)c(C)c(=O)n2c1=O
In CCO
  emission maximum: 459 nm

## COc1ccc2oc(=N)c(C#N)cc2c1
In ClCCl
  emission maximum: 468 nm

## O=[N+]([O-])c1ccc(S(=O)(=O)Nc2ccc(C#Cc3ccc4ccc5ccc(C#Cc6ccc(NS(=O)(=O)c7ccc([N+](=O)[O-])cc7[N+](=O)[O-])cc6)c6ccc3c4c56)cc2)c([N+](=O)[O-])c1
In CO
  emission maximum: 539 nm

## COc1ccc(/C=C/C2=[O+][B-](F)(F)OC(/C=C/c3ccc(OC)cc3)=C2c2ccccc2)cc1
In CC#N
  emission maximum: 564 nm
In CC(C)=O
  emission maximum: 549 nm
In CCOC(C)=O
  emission maximum: 534 nm
In CCOCC
  emission maximum: 520 nm
In ClC(Cl)(Cl)Cl
  emission maximum: 515 nm
In ClCCl
  emission maximum: 554 nm

## C[Si]1(C)C2=CC(=[N+]3CCC3)C=C(F)C2=Nc2c(F)cc(N3CCC3)cc21
In CCO
  emission maximum: 719 nm

## COc1cc(OC)cc(-c2ccc(C3=CC(c4ccccc4)=C(c4ccccc4)C3)cc2)c1
In ClCCl
  emission maximum: 455 nm

## COC(=O)c1c(-c2cc3ccccc3oc2=O)nn(-c2cccc(C)c2)c1C(=O)OC
In ClCCl
  emission maximum: 401 nm

## CC(C)C[Si](C#Cc1c2c(=O)c3ccccc3c2c(C#C[Si](CC(C)C)(CC(C)C)CC(C)C)c2c(=O)c3ccccc3c12)(CC(C)C)CC(C)C
In ClC(Cl)Cl
  emission maximum: 567 nm

## CN(C)c1ccc2c(-c3cc(N)ccc3C(=O)[O-])c3ccc(=[N+](C)C)cc-3oc2c1
In CCO
  emission maximum: 567 nm
In O
  emission maximum: 574 nm

## CCCCN1c2ccccc2Sc2cc(/C=C/C3=Nc4ccc5ccccc5c4C3(C)C)ccc21
In C1CCCCC1
  emission maximum: 517 nm
In C1CCOC1
  emission maximum: 571 nm
In C1COCCO1
  emission maximum: 562 nm
In CC#N
  emission maximum: 610 nm
In CC(C)=O
  emission maximum: 598 nm
In CC(C)O
  emission maximum: 602 nm
In CCOC(C)=O
  emission maximum: 564 nm
In CCOCC
  emission maximum: 546 nm
In CO
  emission maximum: 635 nm
In CS(C)=O
  emission maximum: 612 nm
In Cc1ccccc1
  emission maximum: 550 nm
In ClCCl
  emission maximum: 595 nm

## CCCCCCC1(CCCCCC)c2ccccc2-c2ccc(-c3ccc(-c4cc(-c5ccccn5)nc(-c5ccccn5)c4)cc3)cc21
In ClCCl
  emission maximum: 409 nm

## c1ccc2c(c1)-c1ccccc1C21c2ccccc2-c2sc3c(c21)C1(c2ccccc2-c2ccccc21)c1ccccc1-3
In C1CCOC1
  emission maximum: 403 nm

## [O-]c1ccccc1/C=N/c1ccccc1/N=C/c1ccccc1[O-]
In C1CCOC1
  emission maximum: 490 nm

## CC(C)[Si](C#Cc1c2cc3ccccc3cc2c(C#C[Si](C(C)C)(C(C)C)C(C)C)c2nc3c(nc12)C1c2ccccc2C3c2ccccc21)(C(C)C)C(C)C
In CCCCCC
  emission maximum: 548 nm

## N#Cc1nc(N(Cc2ccccc2Br)Cc2ccccc2Br)c(C#N)nc1N(Cc1ccccc1Br)Cc1ccccc1Br
In ClC(Cl)Cl
  emission maximum: 565 nm

## CN(C)c1ccc(-c2nc3nc4ccccc4nc3n2-c2ccccc2)cc1
In CC#N
  emission maximum: 528 nm

## CCCCCCc1cc2/c(=C(\C#N)C(=O)OC)s/c(=c3/s/c(=C(/C#N)C(=O)OC)c4cc(CCCCCC)sc34)c2s1
In Cc1ccccc1
  emission maximum: 605 nm

## F[B-]1(F)Oc2ccccc2-c2nc(-c3ccccc3)c3ccccc3[n+]21
In Cc1ccccc1
  emission maximum: 529 nm

From the Deep4Chem optical property database
